Measurements: ChEMBL document CHEMBL3351354, “From the covalent linkage of drugs to novel inhibitors of ribonucleotide reductase: synthesis and biological evaluation of valproic esters of 3'-C-methyladenosine” (Bioorg Med Chem Lett, 2014)
pIC50, pKi: −log10 of the molar value. Each block holds one molecule with its values, some of them ahead of it. The source made the active and inactive calls. The calls are words filed in the database; no cut-off is given here.

Columns and labels:
HL-60 [1] = test: Induction of cell cycle arrest in human HL60 cells assessed as accumulation at G2M phase at 0.5 mM after 24 hrs by propidium iodide staining based flow cytometry (reference value: 12%); type: functional
HL-60 [2] = test: Induction of cell cycle arrest in human HL60 cells assessed as accumulation at G1 phase at 0.5 mM after 24 hrs by propidium iodide staining based flow cytometry (reference value: 32%); type: functional
HL-60 [3] = test: Induction of cell cycle arrest in human HL60 cells assessed as accumulation at S phase at 0.5 mM after 24 hrs by propidium iodide staining based flow cytometry (reference value: 54%); type: functional
HL-60 [4] = test: Induction of cell cycle arrest in human HL60 cells assessed as accumulation at G2M phase at 5 mM after 24 hrs by propidium iodide staining based flow cytometry (reference value: 12%); type: functional
HeLa = test: Growth inhibition of human HeLa cells after 48 hrs by MTT assay; type: functional, cell-based; settings: Homo sapiens, HeLa, 48 h; read-out: IC50
HL-60 [5] = test: Induction of cell cycle arrest in human HL60 cells assessed as accumulation at G1 phase at 5 mM after 24 hrs by propidium iodide staining based flow cytometry (reference value: 32%); type: functional
MCF7 = test: Growth inhibition of human MCF7 cells after 48 hrs by MTT assay; type: functional, cell-based; settings: Homo sapiens, MCF7, 48 h; read-out: IC50
HT-29 = test: Growth inhibition of human HT-29 cells after 48 hrs by MTT assay; type: functional, cell-based; settings: Homo sapiens, HT-29, 48 h; read-out: IC50
HL-60 [6] = test: Induction of cell cycle arrest in human HL60 cells assessed as accumulation at G1 phase at 2 mM after 24 hrs by propidium iodide staining based flow cytometry (reference value: 32%); type: functional
HL-60 [7] = test: Induction of apoptosis in human HL60 cells after 24 to 48 hrs by acridine orange and ethidium bromide staining based fluorescence microscopy; type: functional, cell-based
[8] = Cytotoxicity against human HL60 cells after 24 to 48 hrs by trypan blue dye exclusion method; type: functional, cell-based; settings: HL-60
HL-60 [9] = test: Induction of cell cycle arrest in human HL60 cells assessed as accumulation at G2M phase at 2 mM after 24 hrs by propidium iodide staining based flow cytometry (reference value: 12%); type: functional
[10] = Growth inhibition of human HL60 cells after 48 hrs by MTT assay; type: functional, cell-based, HL-60; settings: Homo sapiens, HL-60, 48 h; read-out: IC50
K562 = test: Growth inhibition of human K562 cells after 48 hrs by MTT assay; type: functional, cell-based; settings: Homo sapiens, K562, 48 h; read-out: IC50
[11] = Growth inhibition of human Caco2 cells after 48 hrs by MTT assay; type: functional, cell-based, Caco-2; settings: Homo sapiens, Caco-2, 48 h; read-out: IC50
HL-60 [12] = test: Induction of cell cycle arrest in human HL60 cells assessed as accumulation at S phase at 5 mM after 24 hrs by propidium iodide staining based flow cytometry (reference value: 54%); type: functional
[13] = target: T1, Histone deacetylase (Homo sapiens) (UniProt Q13547+O15379+Q9UBN7+Q92769+Q9UQL6+Q8WUI4+Q9BY41+Q96DB2+P56524+Q9UKV0+Q969S8); test: Inhibition of HDAC in human HL60 cells assessed as increase in histone H3 acetylation at 1 mM after 24 hrs by Western blotting method; type: cell-based; settings: HL-60
HL-60 [14] = test: Induction of ROS generation in human HL60 cells at 50 and 100 uM after 24 hrs by DCFH-DA staining based flow cytometry; type: functional, cell-based
HuT78 = test: Growth inhibition of human HUT78 cells after 48 hrs by MTT assay; type: functional, cell-based; settings: Homo sapiens, HuT78, 48 h; read-out: IC50
HL-60 [15] = test: Induction of cell cycle arrest in human HL60 cells assessed as accumulation at S phase at 2 mM after 24 hrs by propidium iodide staining based flow cytometry (reference value: 54%); type: functional
[16] = Half life in RPMI-1640 medium containing 10% fetal calf serum assessed as compound disappearance by HPLC-DAD-ESI-MS method; type: ADME, Bos taurus; settings: cattle
Ribonucleotide reductase = target: T2, Ribonucleotide reductase (Homo sapiens, UniProt P23921+Q7LG56); test: Competitive inhibition of human recombinant ribonucleotide reductase in presence of varying levels of ATP by Dixon plot; type: protein-complex assay
T2 sequence (P23921 whole entry): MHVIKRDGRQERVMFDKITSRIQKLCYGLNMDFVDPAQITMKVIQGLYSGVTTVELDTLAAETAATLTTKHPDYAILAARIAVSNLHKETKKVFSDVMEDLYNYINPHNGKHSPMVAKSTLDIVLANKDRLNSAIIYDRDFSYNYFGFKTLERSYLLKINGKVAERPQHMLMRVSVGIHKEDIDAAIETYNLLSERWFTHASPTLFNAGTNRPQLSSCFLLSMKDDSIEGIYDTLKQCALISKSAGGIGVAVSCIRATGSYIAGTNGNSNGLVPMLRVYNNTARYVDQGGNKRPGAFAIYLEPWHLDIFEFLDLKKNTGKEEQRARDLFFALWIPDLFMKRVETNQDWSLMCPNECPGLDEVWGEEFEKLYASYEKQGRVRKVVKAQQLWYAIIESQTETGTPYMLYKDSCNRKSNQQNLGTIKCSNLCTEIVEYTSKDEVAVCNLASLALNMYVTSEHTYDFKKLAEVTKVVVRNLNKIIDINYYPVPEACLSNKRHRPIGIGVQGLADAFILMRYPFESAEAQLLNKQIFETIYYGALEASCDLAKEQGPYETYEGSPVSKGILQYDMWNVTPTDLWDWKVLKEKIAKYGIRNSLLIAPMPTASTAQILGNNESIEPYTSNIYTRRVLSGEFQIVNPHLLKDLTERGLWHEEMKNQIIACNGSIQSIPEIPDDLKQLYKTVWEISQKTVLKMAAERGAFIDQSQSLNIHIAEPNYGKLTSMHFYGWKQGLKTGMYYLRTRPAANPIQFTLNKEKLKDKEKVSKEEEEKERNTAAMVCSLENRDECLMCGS
T2 sequence (Q7LG56 whole entry): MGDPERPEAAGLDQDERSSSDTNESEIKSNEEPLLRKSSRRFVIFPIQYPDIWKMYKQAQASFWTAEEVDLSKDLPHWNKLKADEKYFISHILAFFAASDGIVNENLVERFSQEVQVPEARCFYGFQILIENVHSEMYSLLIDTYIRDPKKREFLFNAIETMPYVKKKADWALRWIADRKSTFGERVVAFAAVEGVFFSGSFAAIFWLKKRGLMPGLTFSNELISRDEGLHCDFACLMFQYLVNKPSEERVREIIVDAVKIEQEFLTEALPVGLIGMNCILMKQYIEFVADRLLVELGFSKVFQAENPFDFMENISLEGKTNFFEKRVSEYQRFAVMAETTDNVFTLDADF

[17] = target: T3, Ribonucleotide reductase (Homo sapiens) (UniProt P23921+Q7LG56); test: Inhibition of human recombinant ribonucleotide reductase at 1.2 mM; type: protein-complex assay
[18] = target: T3, Ribonucleotide reductase (Homo sapiens); test: Inhibition of human recombinant ribonucleotide reductase at 1.2 mM in presence of dGTP; type: protein-complex assay
[19] = Half life in pH 7.4 isotonic sodium phosphate buffer at 37 degC by HPLC-DAD-ESI-MS method; type: physicochemical
[20] = target: T3, Ribonucleotide reductase (Homo sapiens); test: Inhibition of ribonucleotide reductase in human HL60 cells assessed as intracellular dNTP pools level at 0.3 mM after 1 hr by HPLC method; type: cell-based; settings: HL-60
[21] = target: T3, Ribonucleotide reductase (Homo sapiens); test: Inhibition of human recombinant ribonucleotide reductase at 1.2 mM in presence of 3 mM ATP; type: protein-complex assay
[22] = target: T3, Ribonucleotide reductase (Homo sapiens); test: Inhibition of human recombinant ribonucleotide reductase at 1.2 mM in presence of 1 mM ATP; type: protein-complex assay
[23] = target: T1, Histone deacetylase (Homo sapiens); test: Inhibition of HDAC in human HL60 cells assessed as increase in histone H3 acetylation at 10 and 100 uM after 24 hrs by Western blotting method; type: cell-based; settings: HL-60
HL-60 [24] = test: Induction of cell cycle arrest in human HL60 cells assessed as accumulation at G2M phase at 100 uM after 24 hrs by propidium iodide staining based flow cytometry (reference value: 12%); type: functional
HL-60 [25] = test: Induction of cell cycle arrest in human HL60 cells assessed as accumulation at G1 phase at 100 uM after 24 hrs by propidium iodide staining based flow cytometry (reference value: 32%); type: functional
HL-60 [26] = test: Induction of cell cycle arrest in human HL60 cells assessed as accumulation at S phase at 100 uM after 24 hrs by propidium iodide staining based flow cytometry (reference value: 54%); type: functional

Compound: NC(=O)NO [HYDROXYUREA]
Activity (HL-60 [1]): 7%
Activity (HL-60 [2]): 86%
Activity (HL-60 [3]): 7%

pIC50 (HeLa): 3.00
pIC50 (MCF7): 3.64
pIC50 (HT-29): < 3.00
pIC50 (K562): < 3.00
inhibition [13]: Active
Compound: CCCC(CCC)C(=O)O [VALPROIC ACID]
Activity (HL-60 [4]): 55%
Activity (HL-60 [5]): 39%
Activity (HL-60 [6]): 78%
AC50 (HL-60 [7]; Homo sapiens, HL-60, read-out: AC50): 2500 µM
pIC50 [8]: 2.77
Activity (HL-60 [9]): 14%
pIC50 [10]: 2.77
pIC50 [11]: < 3.00
Activity (HL-60 [12]): 5%
Activity (HL-60 [14]): inactive
pIC50 (HuT78): 2.74
Activity (HL-60 [15]): 8%

half-life [16]: > 72 h
pKi (Ribonucleotide reductase): 3.40
inhibition [17]: Active
pIC50 (HeLa): < 3.70
pIC50 (MCF7): < 3.70
pIC50 (HT-29): < 3.70
inhibition [18]: inactive
half-life [19]: > 72 h
inhibition [20]: Active
inhibition [21]: inactive
inhibition [22]: Active
inhibition [23]: inactive
pIC50 (K562): 3.70
Compound: CCCC(CCC)C(=O)OC[C@H]1O[C@@H](n2cnc3c(N)ncnc32)[C@H](O)[C@]1(C)O
AC50 (HL-60 [7]; hl-60): Not Active
pIC50 [10]: 4.17
Activity (HL-60 [24]): 14%
pIC50 [11]: < 3.70
Activity (HL-60 [25]): 42%
Activity (HL-60 [26]): 44%
pIC50 (HuT78): 3.85
